# Columns and labels:
# [1] = tested on: mice; experiment: Open field test; format: in vivo; conditions: 6 min, Diazepam 2 mg/kg
# Experimental: (§1) After the mice arrived, they were acclimatized for a week to enter the experiment. There were 12 mice in each group.
# (§2) The normal group mice were gavaged with the same volume of purified water, and the gavage doses of other groups were illustrated in the results table section below. The mice were gavaged every morning at fixed time (9:00) with a gavage volume of 0.1 ml·10 g^−1. the administration lasted for one month, and behavioral assays were performed 1 h after the last gavage.
# The test was performed inside an open field box with 50 cm long, 50 cm wide, and 50 cm deep. The bottom of the open field box was equally divided into nine squares, with the right middle area being the central area and the remaining area being the peripheral area. The bottom and surrounding of the open field box were all white. The test was performed in a quiet weak red light environment. At the beginning, the mice were placed in the center of the open field box, and the activity within 6 minutes was observed. Total running distance, running distance in central area and number of entries into central area of the mice were recorded.
# [2] = tested on: mice; experiment: Light-dark box test; format: in vivo; conditions: gavage one month, 5 min, Diazepam 2 mg/kg
# Experimental: as §1, §2
# The light and dark box is composed of an integral box which is divided into two compartments (light area and dark area) of the same size (L×w×H=25 cm×25 cm×30 cm) by a middle gate (6.5 cm×6.5 cm). The light area is illuminated by white light, and the dark area is illuminated by red light. At the beginning of the test, each mouse was placed in the center of the light area facing the partition wall, and the middle gate was removed. Once four claws of one mouse entered the compartment, it was recorded as one entry. Supermaze software was used to record the distance in light area, retention time in light area and number of entries into light area in 5 minutes.
compound,measurement,setting,value
CN1C(=O)CN=C(c2ccccc2)c2cc(Cl)ccc21 [Diazepam],Total running distance,"[1]; gavage daily for one month, 1 h after last gavage",29927 ± 2380
same,Number of entries into central area,[1]; gavage one month,12.78 ± 1.498
same,Running distance in central area,[1]; gavage one month,2168 ± 218.6
same,Distance in light area,[2],18141 ± 1011
same,Number of entries into light area,[2],18.92 ± 1.540

# From patent US12447186B2, “Traditional Chinese medicine compound composition with anti-anxiety effect and preparation method and applications thereof” (Chenland Nutritionals Inc., priority 2020, dated 2025)
